IC50 data for 21 compounds are collected here from US20140171417A1, “TRICYCLIC COMPOUNDS” (NOVARTIS AG, priority 2012, published 2014).

SMILES strings stand for the structures.

T1 sequence (P13569 whole entry): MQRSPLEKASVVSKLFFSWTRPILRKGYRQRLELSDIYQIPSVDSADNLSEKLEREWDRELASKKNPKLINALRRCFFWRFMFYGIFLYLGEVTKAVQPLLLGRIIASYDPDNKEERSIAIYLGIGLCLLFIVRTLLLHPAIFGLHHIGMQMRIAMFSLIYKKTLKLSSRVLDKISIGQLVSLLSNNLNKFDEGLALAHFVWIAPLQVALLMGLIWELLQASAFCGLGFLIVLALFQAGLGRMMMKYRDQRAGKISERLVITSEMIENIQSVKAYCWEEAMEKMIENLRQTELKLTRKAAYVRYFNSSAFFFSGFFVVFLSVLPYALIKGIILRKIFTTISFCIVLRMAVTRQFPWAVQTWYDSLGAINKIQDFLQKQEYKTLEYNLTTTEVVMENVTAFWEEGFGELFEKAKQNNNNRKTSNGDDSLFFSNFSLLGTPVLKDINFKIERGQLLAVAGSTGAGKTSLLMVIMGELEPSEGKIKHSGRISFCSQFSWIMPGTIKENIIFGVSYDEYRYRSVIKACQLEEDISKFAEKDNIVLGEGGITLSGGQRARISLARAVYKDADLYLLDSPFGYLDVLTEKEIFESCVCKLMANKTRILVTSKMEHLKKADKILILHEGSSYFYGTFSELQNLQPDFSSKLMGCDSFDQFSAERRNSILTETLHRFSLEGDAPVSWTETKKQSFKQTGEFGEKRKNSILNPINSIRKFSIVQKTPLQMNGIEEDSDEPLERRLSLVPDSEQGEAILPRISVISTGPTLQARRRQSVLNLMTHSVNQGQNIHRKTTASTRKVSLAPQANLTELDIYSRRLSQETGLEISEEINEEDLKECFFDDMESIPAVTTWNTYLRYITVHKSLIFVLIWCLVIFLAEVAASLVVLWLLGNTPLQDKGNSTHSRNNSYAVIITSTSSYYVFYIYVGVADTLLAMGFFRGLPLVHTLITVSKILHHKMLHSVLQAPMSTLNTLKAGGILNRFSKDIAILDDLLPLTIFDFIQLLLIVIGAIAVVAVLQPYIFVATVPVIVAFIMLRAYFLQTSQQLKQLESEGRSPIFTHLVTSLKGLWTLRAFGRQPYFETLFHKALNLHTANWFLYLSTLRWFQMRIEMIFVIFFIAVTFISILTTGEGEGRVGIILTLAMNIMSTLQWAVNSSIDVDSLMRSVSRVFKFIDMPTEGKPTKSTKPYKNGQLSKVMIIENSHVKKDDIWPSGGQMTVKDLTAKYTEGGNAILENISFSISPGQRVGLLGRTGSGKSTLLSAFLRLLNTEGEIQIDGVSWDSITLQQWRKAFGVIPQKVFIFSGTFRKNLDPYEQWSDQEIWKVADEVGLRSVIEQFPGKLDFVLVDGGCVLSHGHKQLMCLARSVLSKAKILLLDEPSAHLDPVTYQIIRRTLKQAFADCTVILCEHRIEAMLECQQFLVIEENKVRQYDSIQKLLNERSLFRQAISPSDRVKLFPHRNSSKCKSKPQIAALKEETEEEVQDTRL

The assay addresses T1, CFTR (Homo sapiens, UniProt P13569).
T1 construct: expressed in transfected cells
Put plainly: IonWorks Quattro assay (CFTR Inhibitor Assay), whole-cell planar patch clamp. Particulars: inward current (−100 mV); CHO cells stably expressing WT-CFTR; CFTR activated by 10 μM forskolin; test compound incubated 10 min. The format is cell-based. The source says:
CFTR activity can be quantified by electrophysiology methods, using the whole-cell configuration of the patch clamp technique (Hamill O, Marty A, Neher E, Sakmann B and Sigworth F. ‘Improved patch-clamp techniques for high resolution current recording from cells and cell-free membrane patches.’ Pflugers Archive 1981 391: 85-100). This assay directly measures the currents associated with chloride flow through CFTR channels whilst either maintaining or adjusting the transmembrane voltage. This assay can use either single glass micropipettes or parallel planar arrays to measure CFTR activity from native or recombinant cell systems. Currents measured using parallel planar arrays can be quantified using an appropriately equipped instrument such as the IonWorks Quattro (Molecular Devices Corporation, Sunnyvale, Calif.). The Quattro system can measure CFTR currents from either a single cell per recording well (HT configuration) or alternatively from a population of 64 cells per well (Population Patch Clamp PPC) (Finkel A, Wittel A, Yang N, Handran S, Hughes J, Costantin J. ‘Population patch clamp improves data consistency and success rates in the measurement of ionic currents.’ J Biomol Screen. 2006 August; 11 (5):488-96).
Chinese hamster ovary (CHO) cells stably expressing WT-CFTR channels were used for the IonWorks Quattro experiments. Cells were maintained at 37° C. in 5% v/v CO2 at 100% humidity in MEM alpha medium supplemented with 10% (v/v) FCS, 100 U/mL Penicillin/Streptomycin, and 100 μg/L methotrexate. For experiments, cells were grown in 225 cm^2 tissue culture flasks until almost confluent. Cells were removed from the flask using trypsin-EDTA and resuspended in extracellular recording solution for immediate experimentation.
Cells, at a density of 1.5-2 million per mL, were placed on the Quattro system, added to the planar patch plate and seals allowed to establish for 5-10 mins. After assessing seal resistances (typically >50 MΩ), whole-cell access was obtained by perforation with 100 μg/mL amphotericin B. Baseline currents were measured by a pre-compound scan obtained by application of a voltage ramp from −100 to +100 mV. CFTR was activated by the addition of 10 μM forskolin to each of the 384 wells of the patch plate. After 5 min incubation the post-compound 1 currents were measured, again by application of a voltage ramp from −100 to +100 mV. Test compounds, diluted from 10 mM stocks in DMSO in extracellular solution were then added to the patch plate and were incubated for a further 10 min. The post-compound 2 currents were measured by the application of the same voltage ramp from −100 to +100 mV. The inhibition of CFTR was determined from the difference in current between the forskolin addition (post-compound 1) and the test compound (post-compound 2). This was determined at both −100 mV and +100 mV which represents the inward and outward current respectively.
Extracellular solution (ECS): 145 mM NaCl, 4 mM CsCl, 5 mM D-glucose, 10 mM TES, 1 mM CaCl2, 1 mM MgCl2, pH 7.4 NaOH
Intracellular solution (ICS): 113 mM L-Aspartic acid, 113 mM CsOH, 27 mM CsCl, 1 mM NaCl, 1 mM MgCl2, 1 mM EGTA, 10 mM TES. pH 7.2 with CsOH. Filter sterilized before use.
As to `Cn1c(=O)c2c(-c3cccc(C#N)c3)n3c(c2n(C)c1=O)C(c1ccc(Cl)o1)SCC3` (single isomer, unassigned) [Example 3.5, 3-(10-(5-chlorofuran-2-yl)-1,3-dimethyl-2,4-dioxo-2,3,4,7,8,10-hexahydro-1H-pyrimido[4′,5′:3,4]pyrrolo[2,1-c][1,4]thiazin-5-yl)benzonitrile], inhibition was half-maximal at 0.16 µM (IC50).
In the case of `Cn1c(=O)c2c(-c3cccc(C#N)c3)n3c(c2n(C)c1=O)C(c1nc(Cl)cs1)CC3` (single isomer, unassigned) [Example 20a, 3-(9-(4-chlorothiazol-2-yl)-1,3-dimethyl-2,4-dioxo-2,3,4,7,8,9-hexahydro-1H-pyrimido[4,5-a]pyrrolizin-5-yl)benzonitrile] it was 0.27 µM; in that of `Cc1ccc(C2c3c4c(c(-c5cccc(F)c5)n3CCC2(F)F)c(=O)n(C)c(=O)n4C)o1` (racemic) [Example 18, 9,9-Difluoro-5-(3-fluorophenyl)-1,3-dimethyl-10-(5-methylfuran-2-yl)-7,8,9,10-tetrahydropyrimido[4,5-a]indolizine-2,4(1H,3H)-dione], 0.48 µM.
In the case of `Cc1cccc(-c2c3c(=O)n(C)c(=O)n(C)c3c3n2CCCC3c2nc(C)cs2)c1` (single isomer, unassigned) [Example 8.2, 1,3-dimethyl-10-(4-methylthiazol-2-yl)-5-m-tolyl-7,8,9,10-tetrahydropyrimido[4,5-a]indolizine-2,4(1H,3H)-dione] it was 0.29 µM; in that of `Cc1csc(-c2c3c(=O)n(C)c(=O)n(C)c3c3n2C[C@@H](CN2CCCC2=O)S[C@@H]3c2ccc(Cl)o2)n1` (single isomer, unassigned) [Example 30.1a, 10-(5-chlorofuran-2-yl)-1,3-dimethyl-5-(4-methylthiazol-2-yl)-8-((2-oxopyrrolidin-1-yl)methyl)-7,8-dihydro-1H-pyrimido[4′,5′:3,4]pyrrolo[2,1-c][1,4]thiazine-2,4(3H,10H)-dione], 0.25 µM; in that of `Cn1cnc(-c2c3c(=O)n(C)c(=O)n(C)c3c3n2CCSC3c2ccc(Cl)o2)c1` (racemic) [Example 15.7, 10-(5-Chlorofuran-2-yl)-1,3-dimethyl-5-(1-methyl-1H-imidazol-4-yl)-7,8-dihydro-1H-pyrimido[4′,5′:3,4]pyrrolo[2,1-c][1,4]thiazine-2,4(3H,10H)-dione], 5.5 µM.
In the case of `Cn1ccc(-c2c3c(=O)n(C)c(=O)n(C)c3c3n2CCSC3c2ccc(Cl)o2)n1` (single isomer, unassigned) [Example 15.11, 10-(5-Chlorofuran-2-yl)-1,3-dimethyl-5-(1-methyl-1H-pyrazol-3-yl)-7,8-dihydro-1H-pyrimido[4′,5′:3,4]pyrrolo[2,1-c][1,4]thiazine-2,4(3H,10H)-dione] it was 0.13 µM; in that of `Cc1csc(C2c3c4c(c(-c5cccc(C#N)c5)n3CC2(C)C)c(=O)n(C)c(=O)n4C)n1` (single isomer, unassigned) [Example 21.8, 3-(1,3,8,8-Tetramethyl-9-(4-methylthiazol-2-yl)-2,4-dioxo-2,3,4,7,8,9-hexahydro-1H-pyrimido[4,5-a]pyrrolizin-5-yl)benzonitrile], 1.39 µM.
As to `Cn1c(=O)c2c(-c3ccccc3)n3c(c2n(C)c1=O)C(c1cccc(F)c1F)CCC3` (racemic) [Example 6.1, 10-(2,3-Difluorophenyl)-1,3-dimethyl-5-phenyl-7,8,9,10-tetrahydropyrimido[4,5-a]indolizine-2,4(1H,3H)-dione], the half-maximal inhibitory concentration (IC50) amounted to 27.6 µM.
In the case of `Cn1ccc(-c2c3c(=O)n(C)c(=O)n(C)c3c3n2C[C@H](CO)S[C@H]3c2ccc(Cl)o2)n1` (single isomer, unassigned) [Example 17.1, 10-(5-Chlorofuran-2-yl)-8-(hydroxymethyl)-1,3-dimethyl-5-(1-methyl-1H-pyrazol-3-yl)-7,8-dihydro-1H-pyrimido[4′,5′:3,4]pyrrolo[2,1-c][1,4]thiazine-2,4(3H,10H)-dione] it was 0.23 µM; in that of `Cn1c(=O)c2c(-c3ccccc3)n3c(c2n(C)c1=O)C(c1cccc(Cl)c1)SCC3` (racemic) [Example 1.6, 10-(3-Chlorophenyl)-1,3-dimethyl-5-phenyl-7,8-dihydro-1H-pyrimido[4′,5′:3,4]pyrrolo[2,1-c][1,4]thiazine-2,4(3H,10H)-dione], 11.1 µM.
In the case of `Cc1csc(C2CCCn3c(-c4cccc(C#N)c4)c4c(=O)n(C)c(=O)n(C)c4c32)n1` (single isomer, unassigned) [Example 9.1, 3-(1,3-dimethyl-10-(4-methylthiazol-2-yl)-2,4-dioxo-1,2,3,4,7,8,9,10-octahydropyrimido[4,5-a]indolizin-5-yl)benzonitrile] it was 0.29 µM.
In the case of `Cc1ccc([C@H]2CCCn3c(-c4ccccc4)c4c(=O)n(C)c(=O)n(C)c4c32)o1` [Example 6.4, (S)-1,3-Dimethyl-10-(5-methylfuran-2-yl)-5-phenyl-7,8,9,10-tetrahydropyrimido[4,5-a]indolizine-2,4(1H,3H)-dione] it was greater than 30 µM; in that of `Cn1c(=O)c2c(-c3nc(CO)cs3)n3c(c2n(C)c1=O)[C@H](c1ccc(Cl)o1)SCC3` (single isomer, unassigned) [Example 15, 10-(5-Chlorofuran-2-yl)-5-(4-(hydroxymethyl)thiazol-2-yl)-1,3-dimethyl-7,8-dihydro-1H-pyrimido[4′,5′:3,4]pyrrolo[2,1-c][1,4]thiazine-2,4(3H,10H)-dione], 0.1 µM; in that of `Cc1ccc(C2SC[C@H](CN(C)C)n3c(-c4ccccc4)c4c(=O)n(C)c(=O)n(C)c4c32)o1` (single isomer, unassigned) [Example 2.1, 7-((dimethylamino)methyl)-1,3-dimethyl-10-(5-methylfuran-2-yl)-5-phenyl-7,8-dihydro-1H-pyrimido[4′,5′:3,4]pyrrolo[2,1-c][1,4]thiazine-2,4(3H,10H)-dione], 0.41 µM.
Compound `COc1cccc(-c2c3c(=O)n(C)c(=O)n(C)c3c3n2CCSC3c2ccc(Cl)o2)c1` (single isomer, unassigned) [Example 15.13, 10-(5-Chlorofuran-2-yl)-5-(3-methoxyphenyl)-1,3-dimethyl-7,8-dihydro-1H-pyrimido[4′,5′:3,4]pyrrolo[2,1-c][1,4]thiazine-2,4(3H,10H)-dione] gave an IC50 of 0.62 µM.
For `Cc1ccc(C2CCn3c(-c4ccccc4)c4c(=O)n(C)c(=O)n(C)c4c32)o1` (racemic) [Example 11.0, 1,3-Dimethyl-9-(5-methylfuran-2-yl)-5-phenyl-8,9-dihydro-1H-pyrimido[4,5-a]pyrrolizine-2,4(3H,7H)-dione], the IC50 was determined as 9.14 µM.
As to `C=C1Cn2c(-c3cccc(F)c3)c3c(=O)n(C)c(=O)n(C)c3c2C1c1nc(Cl)cs1` (racemic) [Example 29, 9-(4-Chlorothiazol-2-yl)-5-(3-fluorophenyl)-1,3-dimethyl-8-methylene-8,9-dihydro-1H-pyrimido[4,5-a]pyrrolizine-2,4(3H,7H)-dione], 0.44 µM corresponded to half-maximal inhibition (IC50).
The compound `Cc1nc(-c2c3c(=O)n(C)c(=O)n(C)c3c3n2C[C@H](CO)S[C@H]3c2ccc(Cl)o2)cs1` (single isomer, unassigned) [Example 17.2, 10-(5-Chlorofuran-2-yl)-8-(hydroxymethyl)-1,3-dimethyl-5-(2-methylthiazol-4-yl)-7,8-dihydro-1H-pyrimido[4′,5′:3,4]pyrrolo[2,1-c][1,4]thiazine-2,4(3H,10H)-dione] showed an IC50 of 0.24 µM.
In the case of `Cn1c(=O)c2c(-c3ccccc3)n3c(c2n(C)c1=O)C(c1cccc(C#N)c1)CCC3` (racemic) [Example 9.2, 3-(1,3-Dimethyl-2,4-dioxo-5-phenyl-1,2,3,4,7,8,9,10-octahydropyrimido[4,5-a]indolizin-10-yl)benzonitrile] it was 9.3 µM.
For `Cc1ccc([C@@H]2C[C@H](C)Cn3c(-c4cccc(F)c4)c4c(=O)n(C)c(=O)n(C)c4c32)o1` (single isomer, unassigned) [Example 7.5b, 5-(3-fluorophenyl)-1,3,8-trimethyl-10-(5-methylfuran-2-yl)-7,8,9,10-tetrahydropyrimido[4,5-a]indolizine-2,4(1H,3H)-dione], it took 2.18 µM to reach half-maximal inhibition (IC50).
